Data set [1] in a line: Lung PK/PD: PK study after oral aspiration. In kind it is in vivo. To be noted: C57bl/6n, mouse, lung / plasma, mice, 3% glycerol in PBS pH=4, read-out: (lung AUC0-4):(plasma AUC0-4) ratio. Here is the method: C57bl/6n mice were acclimated for at least 3 days before use. On the day of the experiment, animals were grouped into sample sizes of 5 (n=10 for the TGF-β stimulated group). The compound of Formula I (formulated in 3% glycerol in PBS; pH=4) was pre-treated via oral aspiration (OA; animals are forced to aspirate solution into the lungs by covering their nose). All oral aspirations were performed using a 50 μL dosing volume and accompanied by the appropriate vehicle control groups. Following compound OA treatment, the animals were returned to their home cages and monitored. Compound pre-treatment occurred 4 hours prior to harvest for screening and dose-response studies; duration studies had variable compound pre-treatment times. One hour prior to harvest, animals were challenged via oral aspiration a second time with PBS vehicle or recombinant human TGF-β1 protein (0.01 μg per animal dissolved in 1 part 4 mM HCl and 2 parts 3% glycerol in PBS). Five minutes prior to harvest, animals were deeply anesthetized under isoflurane and euthanized via cervical dislocation. […]
Left lung lobes were harvested immediately after BALF collection. […] Following collection of the supernatant, a total protein quantification assay (Bradford) was performed to normalize the concentrations of all samples. […]
Plasma, lung and macrophage drug concentrations were quantified. […]

Data set [2] concerns intestinal fibrosis in an adoptive T-cell transfer model of colitis. Nature of the data set: Efficacy study in adoptive T-cell transfer model of colitis. In kind it is in vivo, CB17 SCID mice. The settings on record: oral gavage once diarrhea and 10% body weight decrease observed; sacrifice 45 days after induction. On the procedure: The compound of Formula I is expected to slow, halt or reverse the progression of intestinal fibrosis in an adoptive T-cell transfer model of colitis. Six- to 8-week old female CB17 SCID mice are tagged and weighed, then administered CD4^+ CD25^− CD62L^+ naïve T cells isolated from the spleens of Balb/C mice (IP; 1×10^6 cells) to induce colitis. Once diarrhea and a 10% or greater decrease in body weight are observed (typically around week 2), mice are treated with either vehicle control or the compound of Formula I at an appropriate amount and frequency via oral gavage (e.g., once daily). Animals are sacrificed 45 days after induction of colitis, then distal, mid and proximal sections of the colon harvested for histologic analysis, RNA extraction and cytokine measurement.

Data set [3] has as its system SMAD3 phosphorylation. Put plainly: Cardiac PK/PD: systemic target engagement, pSMAD3/tSMAD3 in heart by Meso-Scale Discovery. The settings on record: mice, oral aspiration 2 or 4 hours prior to harvest; TGF-β1 i.v. challenge; heart samples. It is filed as in vivo, C57bl/6n mice. Here is the method: C57bl/6n mice were acclimated for at least 3 days before use. On the day of the experiment, animals were grouped into sample sizes of 5-10. Test compounds were pre-treated via oral aspiration (OA; animals are forced to aspirate solution into the lungs by covering their nose). All oral aspirations were performed using a 50 μL dosing volume and accompanied by a vehicle control group (3% glycerol in PBS, pH=4). Following compound OA treatment, the animals were returned to their home cages and monitored. Compound pre-treatment occurred either 2 or 4 hours prior to harvest. One hour prior to harvest, animals were challenged via tail-vein intravenous injection with PBS vehicle or recombinant human TGF-β1 protein (1 μg per animal dissolved in 1 part 4 mM HCl and 2 parts 3% glycerol in PBS). Five minutes prior to harvest, animals were deeply anesthetized under isoflurane and euthanized via cervical dislocation. Plasma, left lung lobes and whole hearts were collected during harvest.
Blood plasma was harvested as described above in the Lung PK/PD experiment. Whole hearts were processed in the same manners as left lung lobes in the Lung PK/PD experiment. Left lung lobes were homogenized in 500 μL of water and submitted for BA Analysis.
Heart samples were processed using MSD in the same manner as the left lung lobes above. […] Plasma, lung and heart drug concentrations were quantified.

As for `C[C@@H]1CN(CCNc2cnc3ccc(-c4nc[nH]c4-c4cc(Cl)ccc4F)nc3c2)C[C@H](C)N1` [compound of Formula I, 6-(5-(5-chloro-2-fluorophenyl)-1H-imidazol-4-yl)-N-(2-((3S,5R)-3,5-dimethylpiperazin-1-yl)ethyl)-1,5-naphthyridin-3-amine], the Kp in data set [1] was above 75. Moreover, the intestinal fibrosis result in data set [2] was “slow, halt or reverse intestinal fibrosis”. The “systemic target engagement, as measured by SMAD3 phosphorylation inhibition” value in data set [3] is recorded as “minimal target engagement systemically”.

(Values after US20210387983A1, “CRYSTALLINE ALK5 INHIBITORS AND USES THEREOF” (THERAVANCE BIOPHARMA R&D IP, LLC, priority 2020, published 2021).)
